Values of other authors, collected in patent US20220062296A1, “COMBINATIONS OF GABAA ALPHA 5 AGONISTS AND SV2A INHIBITORS AND METHODS OF USING IN THE TREATMENT OF COGNITIVE IMPAIRMENT” (AGENEBIO, INC., priority 2020, published 2022).

Conditions: cited from earlier work

CC[C@@H](C(N)=O)N1CCCC1=O [levetiracetam, (2S)-2-(2-oxopyrrolidin-1-yl)butanamide]
plasma half-life in elderly (expected, due to decreased renal function): 9 to 10 h | time to steady state (multiple twice-daily dosing): 2 days | plasma half-life (oral administration): approximately 7±1 hour | absorption after oral administration (oral): rapidly and almost completely absorbed | effect of food on bioavailability (oral): not affected by food | time of peak plasma concentrations following oral administration (oral): about 1 hour
